Assay results as given in PMC4186475 (Influenza and Other Respiratory Viruses, 2013).

How the values were obtained:
[1] = test system: neuraminidase (NA) of variant influenza A (H3N2)v viruses; format: biochemical, influenza A (H3N2)v virus
[2] = test system: neuraminidase (NA) of influenza B viruses; format: biochemical, influenza B virus
[3] = test system: neuraminidase (NA) of influenza A (H1N1)pdm09 viruses; format: biochemical, influenza A (H1N1)pdm09 virus

| SMILES | fold change in IC50 of outliers [1] | Fold change in IC50 of test viruses, Approach #2 [2] | Fold change in IC50 of test viruses, Approach #1 [3] | Fold change in IC50 of test viruses, Approach #2 [3] | Fold change in IC50 of test viruses, Approach #3 [3] | fold change in IC50 of outliers [3] |
| --- | --- | --- | --- | --- | --- | --- |
| CC(=O)N[C@H]1[C@H]([C@H](O)[C@H](O)CO)OC(C(=O)O)=C[C@@H]1N=C(N)N [Zanamivir, zanamivir] | 35·74 (70) fold | 7 (1) fold | – | – | – | – |
| CCOC(=O)C1=C[C@@H](OC(CC)CC)[C@H](NC(C)=O)[C@@H](N)C1 [Oseltamivir, Oseltamivir (carboxylate)] | 5·30 (35) fold | 5–8 (2) fold | 319–1474 (8) fold | 182–1403 (8) fold | 213–1637 (8) fold | 38-27-294·72 (213–1637) fold |
